EP0972764A1, “Aminoalcohols and aminoketones as CNS active agents” (Universita Degli Studi di Firenze, priority 1998, dated 2000)

What was measured:
D2 (Dopamine) receptors = biological target: T1, D2 (Dopamine) receptors (Rattus norvegicus, UniProt P61169); test: In vitro inhibition of 3H-spiperone binding, D2 assay (rat brain membranes)
T1 construct: preparation of rat brain membrane enriched in D2 (Dopamine) or S2 (Serotonine) receptors; from tissue; host or cells: rat brain membranes
Procedure: The compounds I, prepared according to the present invention, were tested in vitro on preparation of rat brain membrane enriched in D2 (Dopamine) or S2 (Serotonine) receptors accordingly known methods to perform inhibition experiments of the binding of ^3H-receptors ligands.
For the D2 assays the method described by Ferretti et al. (Life Sci 42(24):2457-65, 1988) was used.

[1] = biological target: T2, S2 (Serotonine) receptors (Rattus norvegicus, UniProt P14842); test: In vitro inhibition of 3H-spiperone binding, S2 assay (rat brain membranes)
T2 construct: preparation of rat brain membrane enriched in D2 (Dopamine) or S2 (Serotonine) receptors; from tissue; host or cells: rat brain membranes
T2 sequence (P14842 whole entry): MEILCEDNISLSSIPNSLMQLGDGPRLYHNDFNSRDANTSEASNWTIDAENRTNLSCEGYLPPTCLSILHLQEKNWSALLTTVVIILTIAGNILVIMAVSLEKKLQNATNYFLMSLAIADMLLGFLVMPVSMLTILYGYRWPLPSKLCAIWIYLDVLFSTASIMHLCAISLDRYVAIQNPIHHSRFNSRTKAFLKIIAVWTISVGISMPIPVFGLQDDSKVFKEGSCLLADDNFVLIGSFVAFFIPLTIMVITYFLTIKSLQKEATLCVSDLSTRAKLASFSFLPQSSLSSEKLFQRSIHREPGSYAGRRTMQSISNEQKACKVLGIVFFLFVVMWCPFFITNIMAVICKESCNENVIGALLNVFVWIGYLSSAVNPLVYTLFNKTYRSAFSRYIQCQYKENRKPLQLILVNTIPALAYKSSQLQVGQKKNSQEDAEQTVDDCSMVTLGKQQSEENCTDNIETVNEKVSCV
Procedure: The compounds I, prepared according to the present invention, were tested in vitro on preparation of rat brain membrane enriched in D2 (Dopamine) or S2 (Serotonine) receptors accordingly known methods to perform inhibition experiments of the binding of ^3H-receptors ligands. For the S2 receptor assay the method described by List and Seeman (List S.J. and Seeman P. Proc. Natl. Acad. Sci. USA. 78:2620-2624, 1981) was used with slight adaptations.

[2] = First pass cerebral extraction in the rat (blood brain barrier crossing of radiolabelled compound); format: in vivo; conditions: intracardiac injection, physiological rCBF range 0.8-1 ml/min/g
Procedure: Compounds I, prepared according to the present invention and containing radioactive isotopes were tested inrespect of their capacity to cross the brain blood barrier, since CNS receptors tracers should be able to pass through the intact blood brain barrier following intravenous injection.
Measures of the rat brain extraction of the compounds was determined following known procedures based on the use of labelled reference substances with known extraction.
In the rat the first pass cerebral extraction of N-benzyl-3-(4-fluoro-2-^125I-iodo-fenil)-hydroxypropylamine [compound I with R1 = H and R2 = Benzyl, Q = single bond Wn = 2-^125I, 4-F, n = 2, A = OH, m = 0, a = single bond] was evaluated measuring the radioactive compounds concentration in the brain, after an intracardiac injection of a mixture of the tested compound, a completely extracted tracer, as the albumin microspheres labelled with ^99mTc (undergoing to a sort of entrapment in the brain microvasculature) and a non extracted tracer as the sodium salt of hortoiodoippuric acid.

T1 sequence (P61169 whole entry): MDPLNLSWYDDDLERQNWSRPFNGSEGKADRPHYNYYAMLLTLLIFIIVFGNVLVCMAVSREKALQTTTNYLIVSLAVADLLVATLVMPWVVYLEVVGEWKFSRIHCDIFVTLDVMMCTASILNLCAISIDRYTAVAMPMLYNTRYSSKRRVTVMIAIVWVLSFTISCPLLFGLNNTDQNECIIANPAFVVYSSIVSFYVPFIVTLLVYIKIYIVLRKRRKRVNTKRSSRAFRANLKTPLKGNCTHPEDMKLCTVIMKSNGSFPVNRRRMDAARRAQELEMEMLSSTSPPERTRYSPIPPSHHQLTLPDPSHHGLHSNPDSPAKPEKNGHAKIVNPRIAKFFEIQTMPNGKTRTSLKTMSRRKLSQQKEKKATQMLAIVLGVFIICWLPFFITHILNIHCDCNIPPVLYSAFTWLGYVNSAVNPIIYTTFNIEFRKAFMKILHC

OC(CCNCc1ccccc1)c1ccc(F)cc1Br (racemic) [N-benzyl-3-(2-bromo-4-fluorophenyl)-3-hydroxypropylamine]
IC50 (D2 (Dopamine) receptors; inhibition of ^3H-spiperone binding, D2 assay, tested in its racemic form): 34 µM
IC50 ([1]; inhibition of ^3H-spiperone binding, S2 assay, tested in its racemic form): 18.7 µM

2-[3-(4-fluorophenyl)-3-oxopropyl]-tetrahydro-2H-isoindole
binding affinity towards D2 receptors (column D2) (D2 (Dopamine) receptors; compounds at 10 µM concentration, rat brain membrane, unit not given): 12
binding affinity, column T1 ([1]; compounds at 10 µM concentration, rat brain membrane, unit not given, column head T1, text says S2): 65

OC(CCNCc1ccccc1)c1ccc(F)cc1[125I] (centres unmarked) [N-benzyl-3-(4-fluoro-2-^125I-iodo-fenil)-hydroxypropylamine]
cerebral tissue extraction fraction [2]: about 50%
